{"source": "paper PMC9557946", "about": "“Intermittent MEK inhibition for the treatment of metastatic uveal melanoma” (Frontiers in Oncology, 2022)", "key": {"[1]": {"tested_on": "metastatic uveal melanoma", "test": "Phase Ib trial of intermittent selumetinib: clinical efficacy (RECIST v1.1, PFS, OS)", "format": "in vivo, human", "description": "This was a multi-center, open-label, phase Ib study conducted at Columbia University Irving Medical Center (New York, NY), University of Texas MD Anderson Cancer Center (Houston, TX), and Memorial Sloan Kettering Cancer Center (New York, NY). The primary objective of this study was to determine the maximum tolerated dose (MTD) of selumetinib administered using an intermittent dosing schedule in patients with metastatic UM. […] Exploratory objectives included pharmacodynamic (PD) assessment of target inhibition of the MEK pathway.\nDescriptive statistics were used to report baseline characteristics of the study population. The observed rate and estimated rate of DLT were reported for each dose level along with the 90% probability interval. The number and percentage of patients with adverse events were summarized taking the highest grade and reported by grade for AEs that were at least possibly related to treatment. AEs with at prevalence of least 10% were reported separately. The overall response rate (ORR) was defined as a confirmed complete response (CR) or partial response (PR) according to RECIST 1.1 criteria ([18]) and reported by dose level. Disease control rate (DCR) was defined as the percentage of patients with a confirmed CR, PR or stable disease. PFS was measured from date of enrollment until the date of progression or death, whichever occurred first. OS was defined as the time from the date of registration to the date of death by any cause.\nImaging was obtained at baseline, at 8 weeks after start of study treatment, and then every 8 weeks thereafter. Imaging of the chest, abdomen, and pelvis was required at each time point, with contrast enhanced MRI of the liver performed whenever possible. Response was assessed using RECIST v.1.1 criteria by investigator assessment. Criteria for removal from study included radiographic or clinical disease progression, or unacceptable toxicity."}, "clinical": {"test": "clinical", "conditions": "human, in vivo", "method": "Non-compartmental analyses were performed on the data for day 1, 2, 15 and 17 using Winnonlin software (Phoenix Winnonlin 8.3.1.5014, Certara L.P., Princeton, NJ). […] Data were summarized per dose level and per occasion. Dose-exposure relationships were explored by plotting dose versus the various parameters. Accumulation was investigated using the AUC assessed at various days."}, "[2]": {"conditions": "All Levels, investigator assessed RECIST v1.1"}, "[3]": {"conditions": "Level 1 (100 mg BID), investigator assessed RECIST v1.1"}, "[4]": {"conditions": "Level 2 (125 mg BID), investigator assessed RECIST v1.1"}, "[5]": {"conditions": "Level 3 (150 mg BID), investigator assessed RECIST v1.1"}, "[6]": {"conditions": "Level 4 (175 mg BID), investigator assessed RECIST v1.1"}}}
{"smiles": "Cn1cnc2c(F)c(Nc3ccc(Br)cc3Cl)c(C(=O)NOCCO)cc21", "note": "[selumetinib]", "values": [{"measurement": "median PFS", "setting": "[1]; 125mg twice daily cohort", "value": 1.7, "unit": "months"}, {"measurement": "Complete Response (CR)", "setting": "[1]; [2]", "value": 0}, {"measurement": "Partial Response (PR)", "setting": "[1]; [2]", "value": 0}, {"measurement": "Median duration of Stable Disease", "setting": "[1]; Level 1 (100 mg BID)", "value": 7.1, "unit": "months"}, {"measurement": "Complete Response (CR)", "setting": "[1]; [3]", "value": 0}, {"measurement": "Overall Response Rate (ORR)", "setting": "[1]; [3]", "value": 0}, {"measurement": "Partial Response (PR)", "setting": "[1]; [3]", "value": 0}, {"measurement": "Median Time to Progression (range)", "setting": "[1]; Level 1 (100 mg BID), range 1.2-10.8", "value": "3.4 months (1.2-10.8)"}, {"measurement": "Median duration of Stable Disease", "setting": "[1]; Level 2 (125 mg BID)", "value": 4.1, "unit": "months"}, {"measurement": "Complete Response (CR)", "setting": "[1]; [4]", "value": 0}, {"measurement": "Overall Response Rate (ORR)", "setting": "[1]; [4]", "value": 0}, {"measurement": "Partial Response (PR)", "setting": "[1]; [4]", "value": 0}, {"measurement": "Median Time to Progression (range)", "setting": "[1]; Level 2 (125 mg BID), range 0.9-5.5", "value": "1.7 months (0.9-5.5)"}, {"measurement": "Median duration of Stable Disease", "setting": "[1]; Level 3 (150 mg BID)", "value": 4.9, "unit": "months"}, {"measurement": "Complete Response (CR)", "setting": "[1]; [5]", "value": 0}, {"measurement": "Overall Response Rate (ORR)", "setting": "[1]; [5]", "value": 0}, {"measurement": "Partial Response (PR)", "setting": "[1]; [5]", "value": 0}, {"measurement": "Median Time to Progression (range)", "setting": "[1]; Level 3 (150 mg BID), range 0.9-6.2", "value": "3.7 months (0.9-6.2)"}, {"measurement": "Complete Response (CR)", "setting": "[1]; [6]", "value": 0}, {"measurement": "Overall Response Rate (ORR)", "setting": "[1]; [6]", "value": 0}, {"measurement": "Partial Response (PR)", "setting": "[1]; [6]", "value": 0}, {"measurement": "Progressive Disease (PD), patients/total (%)", "setting": "[1]; [6]", "value": 0}, {"measurement": "ORR", "setting": "[1]; all 29 patients, RECIST v1.1", "value": 0, "unit": "%"}, {"measurement": "best response of stable disease, percent of patients", "setting": "[1]; at 8 weeks from treatment initiation, n=11 of 29", "value": 38, "unit": "%"}, {"measurement": "median progression-free response by cohort", "setting": "[1]; range across dose cohorts", "value": "1.7-3.7 months"}, {"measurement": "median PFS", "setting": "[1]; total population (29 patients), 95% CI 1.7, 4.5", "value": 1.8, "unit": "months"}, {"measurement": "median OS", "setting": "[1]; total population (29 patients), 95% CI 5.3, 11.5", "value": 7.1, "unit": "months"}, {"measurement": "half-life", "setting": "clinical", "value": 4.3, "unit": "h"}, {"measurement": "Tmax", "setting": "clinical; po", "value": "~1.7", "unit": "h"}]}
